Measurements reported in patent publication US20230265151A1, “GIP/GLP1 CO-AGONIST COMPOUNDS” (priority 2020, published 2023).
Where two headings read alike, the source gives them in different places.

Key:
[1] = molecular target: T1, human GLP-1 receptor (hGLP-1R) (Homo sapiens, UniProt P43220); experiment: [125I]-GLP-1 binding, SPA with membranes of HEK293 cells expressing hGLP-1R
T1 construct: expressed in transfected cells; crude membranes

[2] = molecular target: T2, human GIP receptor (hGIPR) (Homo sapiens, UniProt P48546); experiment: [125I]-GIP binding, SPA with membranes of CHO cells expressing hGIPR
T2 construct: expressed in transfected cells; crude membranes
T2 sequence (P48546 22-466): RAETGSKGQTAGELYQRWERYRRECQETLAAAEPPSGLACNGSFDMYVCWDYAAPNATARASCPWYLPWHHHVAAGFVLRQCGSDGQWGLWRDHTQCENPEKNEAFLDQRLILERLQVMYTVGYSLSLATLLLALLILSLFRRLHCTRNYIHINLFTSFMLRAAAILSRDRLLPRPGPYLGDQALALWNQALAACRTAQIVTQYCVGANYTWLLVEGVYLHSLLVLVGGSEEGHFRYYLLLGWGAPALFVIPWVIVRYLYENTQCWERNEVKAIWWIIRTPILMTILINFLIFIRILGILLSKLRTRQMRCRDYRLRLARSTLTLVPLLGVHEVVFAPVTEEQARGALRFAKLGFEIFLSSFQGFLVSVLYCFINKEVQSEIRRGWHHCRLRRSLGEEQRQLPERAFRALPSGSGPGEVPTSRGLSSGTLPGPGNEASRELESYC

hGIPR = molecular target: T3, hGIPR (Homo sapiens, UniProt P48546); experiment: Functional cAMP formation (HTRF) in HEK-293 clonal cells expressing hGIPR, 0.1% bovine casein, without or with 1.0% human serum albumin; format: cell-based; settings: 37° C.; for EC50: geometric mean; for Emax: percent of maximal response to GIP(1-42)NH2, read-out: hGIPR Emax, % ± SEM
T3 construct: expressed in transfected cells
T3 sequence (P48546 22-466): T2 sequence (P48546 22-466)
Procedure, shortened: (§1)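 Readings of the HTRF 665/620 nm ratio, which falls as cAMP rises, were converted to nM cAMP using a standard curve after 30 min peptide exposure at 37° C.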

hGCGR = molecular target: T4, hGCGR (Homo sapiens, UniProt P47871); experiment: Functional cAMP formation (HTRF) in HEK-293 clonal cells expressing hGCGR, 0.1% bovine casein, without or with 1.0% human serum albumin; format: cell-based; settings: 37° C.
T4 construct: expressed in transfected cells
Procedure, shortened: as §1

hGLP-1R = hGLP-1R (Homo sapiens, UniProt P43220); experiment: Functional cAMP formation (HTRF) in HEK-293 clonal cells expressing hGLP-1R, 0.1% bovine casein, without or with 1.0% human serum albumin; format: cell-based; parameters: expressed in transfected cells; settings: for Emax: percent of maximal response to GLP-1(7-36)NH2; for EC50: cAMP
Procedure, shortened: as §1

[3] = human GLP-1R, geometric mean (SEM, n), read-out: Binding Affinity Ki, nM (SEM, n) hGLP-1R
[4] = human GIPR, geometric mean (SEM, n), read-out: Binding Affinity Ki, nM (SEM, n) hGIPR
[5] = HEK293, 0.1% bovine casein and 1.0% human serum albumin
[6] = cAMP, 0.1% bovine casein (no human serum albumin), read-out: hGIPR EC50, nM (SEM, n)
[7] = 0.1% bovine casein and 1.0% human serum albumin, geometric mean, read-out: hGCGR EC50, nM (SEM, n)
[8] = cAMP, 0.1% bovine casein (no human serum albumin), geometric mean, read-out: hGCGR EC50, nM (SEM, n)
[9] = HEK293, 0.1% bovine casein and 1.0% human serum albumin, 37° C., read-out: hGLP-1R Emax, % ± SEM
[10] = 37° C., 0.1% bovine casein (no human serum albumin), geometric mean, read-out: hGLP-1R EC50, nM (SEM, n)
[11] = HEK293, cAMP, 37° C., 0.1% bovine casein, arithmetic mean, read-out: hGLP-1R Emax, % ± SEM

Chain of hGLP-1R (P43220 24-463): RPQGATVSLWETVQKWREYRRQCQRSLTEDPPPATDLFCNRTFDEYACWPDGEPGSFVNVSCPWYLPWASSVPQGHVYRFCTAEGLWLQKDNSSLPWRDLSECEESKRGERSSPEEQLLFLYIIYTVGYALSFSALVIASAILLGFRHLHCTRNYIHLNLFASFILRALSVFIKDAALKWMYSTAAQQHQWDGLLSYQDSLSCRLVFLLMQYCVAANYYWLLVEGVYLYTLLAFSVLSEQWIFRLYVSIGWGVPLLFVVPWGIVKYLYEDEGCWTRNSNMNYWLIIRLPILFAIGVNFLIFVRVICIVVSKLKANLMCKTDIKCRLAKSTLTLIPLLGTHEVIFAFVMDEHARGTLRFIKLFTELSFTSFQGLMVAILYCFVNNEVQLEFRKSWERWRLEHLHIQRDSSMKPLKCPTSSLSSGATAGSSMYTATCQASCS
T1 sequence (P43220 24-463): as above
T4 sequence (P47871 26-477): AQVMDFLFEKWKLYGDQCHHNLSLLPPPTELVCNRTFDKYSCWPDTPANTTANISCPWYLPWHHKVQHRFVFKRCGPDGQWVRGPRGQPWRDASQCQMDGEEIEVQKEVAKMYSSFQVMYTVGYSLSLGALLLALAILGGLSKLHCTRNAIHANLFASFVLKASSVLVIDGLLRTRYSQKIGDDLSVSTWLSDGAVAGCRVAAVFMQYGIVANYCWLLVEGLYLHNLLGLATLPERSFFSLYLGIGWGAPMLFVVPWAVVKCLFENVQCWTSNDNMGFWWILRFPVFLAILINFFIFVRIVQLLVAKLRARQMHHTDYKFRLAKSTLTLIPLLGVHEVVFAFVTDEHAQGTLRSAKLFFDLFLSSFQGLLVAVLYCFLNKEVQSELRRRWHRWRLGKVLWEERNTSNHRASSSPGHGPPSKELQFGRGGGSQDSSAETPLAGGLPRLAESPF

Structure (SMILES) | Ki [1, 3] [nM] | Ki [2, 4] [nM] | Emax (hGIPR; [5]) [%] | EC50 (hGIPR; [6]) [nM] | EC50 (hGCGR; [7]) [nM] | EC50 (hGCGR; [8]) [nM] | Emax (hGLP-1R; [9]) [%] | EC50 (hGLP-1R; [10]) [nM] | Emax (hGLP-1R; [11]) [%] | also measured
CCCCCCCCCCCC(=O)N[C@@H](CCC(=O)NCCOCCOCC(=O)NCCOCCOCC(=O)NCCCC[C@H](NC(=O)[C@H](CO)NC(=O)[C@@H]1CCCN1C(=O)[C@@H]1CCCN1C(=O)[C@@H]1CCCN1C(=O)[C@H](C)NC(=O)CNC(=O)[C@H](CO)NC(=O)[C@H](CO)NC(=O)[C@@H]1CCCN1C(=O)CNC(=O)CNC(=O)[C@H](CCC(=O)O)NC(=O)[C@@H](NC(=O)[C@H](CC(C)C)NC(=O)[C@](C)(Cc1ccc(O)cc1)NC(=O)[C@@H](CCC(=O)O)NC(=O)[C@@H](NC(=O)[C@H](Cc1ccccc1)NC(=O)[C@H](CCC(=O)O)NC(=O)C(C)(C)NC(=O)[C@H](CCC(N)=O)NC(=O)[C@H](C)NC(=O)[C@H](CCCCNC(=O)COCCOCCNC(=O)COCCOCCNC(=O)CC[C@H](NC(=O)CCCCCCCCCCC)C(=O)O)NC(=O)[C@H](CCCN)NC(=O)[C@H](CC(=O)O)NC(=O)[C@H](CC(C)C)NC(=O)[C@](C)(CC(C)C)NC(=O)[C@@H](NC(=O)C(C)(C)NC(=O)[C@H](Cc1ccc(O)cc1)NC(=O)[C@H](CC(=O)O)NC(=O)[C@H](CO)NC(=O)[C@@H](NC(=O)[C@](C)(Cc1ccccc1F)NC(=O)[C@@H](NC(=O)CNC(=O)[C@H](CCC(=O)O)NC(=O)C(C)(C)NC(=O)[C@@H](N)Cc1ccc(O)cc1)[C@@H](C)O)[C@@H](C)O)[C@@H](C)CC)[C@@H](C)CC)[C@@H](C)CC)C(N)=O)C(=O)O [Example 302] | 0.137 | 0.0228 | 86.3 | 0.00916 | > 9950 | > 9950 | 99.4 | 0.0917 |  | EC50 (hGIPR; 0.1% bovine casein and 1.0% human serum albumin, read-out: hGIPR EC50, nM (SEM, n)): 0.453 nM; Emax (hGIPR; HEK293, cAMP, 0.1% bovine casein, arithmetic mean): 100%
CCCCCCCCCCCC(=O)N[C@@H](CCC(=O)NCCOCCOCC(=O)NCCOCCOCC(=O)NCCCC[C@H](NC(=O)[C@H](CCCN)NC(=O)[C@H](CC(=O)O)NC(=O)[C@H](CC(C)C)NC(=O)[C@](C)(CC(C)C)NC(=O)[C@@H](NC(=O)C(C)(C)NC(=O)[C@H](Cc1ccncc1)NC(=O)[C@H](CC(=O)O)NC(=O)[C@H](CO)NC(=O)[C@@H](NC(=O)[C@](C)(Cc1ccccc1F)NC(=O)[C@@H](NC(=O)CNC(=O)[C@H](CCC(=O)O)NC(=O)C(C)(C)NC(=O)[C@@H](N)Cc1ccc(O)cc1)[C@@H](C)O)[C@@H](C)O)[C@@H](C)CC)C(=O)N[C@@H](C)C(=O)N[C@@H](CCC(N)=O)C(=O)NC(C)(C)C(=O)N[C@@H](CCCCNC(=O)COCCOCCNC(=O)COCCOCCNC(=O)CC[C@H](NC(=O)CCCCCCCCCCC)C(=O)O)C(=O)N[C@@H](Cc1ccccc1)C(=O)N[C@H](C(=O)N[C@H](CCC(=O)O)C(=O)N[C@@](C)(Cc1ccc(O)cc1)C(=O)N[C@@H](CC(C)C)C(=O)N[C@H](C(=O)N[C@@H](CCC(=O)O)C(=O)NCC(=O)NCC(=O)N1CCC[C@H]1C(=O)N[C@@H](CO)C(=O)N[C@@H](CO)C(=O)NCC(=O)N[C@@H](C)C(=O)N1CCC[C@H]1C(=O)N1CCC[C@H]1C(=O)N1CCC[C@H]1C(=O)N[C@@H](CO)C(N)=O)[C@@H](C)CC)[C@@H](C)CC)C(=O)O [Example 322] | 0.234 | 0.0162 | 89.7 | 0.00937 | > 9950 | > 9950 | 94.5 | 0.144 | 100 | 
CCCCCCCCCCCC(=O)N[C@@H](CCC(=O)NCCOCCOCC(=O)NCCOCCOCC(=O)NCCCC[C@H](NC(=O)[C@H](CO)NC(=O)[C@@H]1CCCN1C(=O)[C@@H]1CCCN1C(=O)[C@@H]1CCCN1C(=O)[C@H](C)NC(=O)CNC(=O)[C@H](CO)NC(=O)[C@H](CO)NC(=O)[C@@H]1CCCN1C(=O)CNC(=O)CNC(=O)[C@H](CCC(=O)O)NC(=O)[C@@H](NC(=O)[C@H](CC(C)C)NC(=O)[C@](C)(Cc1ccc(O)cc1)NC(=O)[C@@H](CCC(=O)O)NC(=O)[C@@H](NC(=O)[C@H](Cc1ccccc1)NC(=O)[C@H](CCC(=O)O)NC(=O)C(C)(C)NC(=O)[C@H](CCC(N)=O)NC(=O)[C@H](C)NC(=O)[C@H](CCCCNC(=O)COCCOCCNC(=O)COCCOCCNC(=O)CC[C@H](NC(=O)CCCCCCCCCCC)C(=O)O)NC(=O)[C@H](CCCN)NC(=O)[C@H](CC(=O)O)NC(=O)[C@H](CC(C)C)NC(=O)[C@](C)(CC(C)C)NC(=O)[C@@H](NC(=O)C(C)(C)NC(=O)[C@H](Cc1ccncc1)NC(=O)[C@H](CC(=O)O)NC(=O)[C@H](CO)NC(=O)[C@@H](NC(=O)[C@](C)(Cc1ccccc1F)NC(=O)[C@@H](NC(=O)CNC(=O)[C@H](CCC(=O)O)NC(=O)C(C)(C)NC(=O)[C@@H](N)Cc1ccc(O)cc1)[C@@H](C)O)[C@@H](C)O)[C@@H](C)CC)[C@@H](C)CC)[C@@H](C)CC)C(N)=O)C(=O)O [Example 324] | 0.168 | 0.0163 |  | 0.00632 |  | > 9950 |  | 0.0647 | 97.6 | Emax (hGIPR; HEK293, cAMP, 0.1% bovine casein and 1.0% human serum albumin): 85.4%; EC50 (hGCGR; cAMP, 0.1% bovine casein and 1.0% human serum albumin, geometric mean (SEM, n), read-out: hGCGR EC50, nM (SEM, n)): > 9950 nM; Emax (hGLP-1R; HEK293, cAMP, 37° C., 0.1% bovine casein and 1.0% human serum albumin, read-out: hGLP-1R Emax, % ± SEM): 99.4%; EC50 (hGLP-1R; 37° C., 0.1% bovine casein and 1.0% human serum albumin, geometric mean (SEM, n), read-out: hGLP-1R EC50, nM (SEM, n)): 4.38 nM
CC[C@H](C)[C@H](NC(=O)[C@H](CC(C)C)NC(=O)[C@](C)(Cc1ccc(O)cc1)NC(=O)[C@@H](CCC(=O)O)NC(=O)[C@@H](NC(=O)[C@H](Cc1ccccc1)NC(=O)[C@H](CCCCNC(=O)COCCOCCNC(=O)CC[C@H](NC(=O)CCCCCCCCCOc1ccc(C(=O)O)cc1)C(=O)O)NC(=O)C(C)(C)NC(=O)[C@H](CCC(N)=O)NC(=O)[C@H](C)NC(=O)[C@H](CCCCNC(=O)COCCOCCNC(=O)CC[C@H](NC(=O)CCCCCCCCCOc1ccc(C(=O)O)cc1)C(=O)O)NC(=O)[C@H](CCCN)NC(=O)[C@H](CC(=O)O)NC(=O)[C@H](CC(C)C)NC(=O)[C@](C)(CC(C)C)NC(=O)[C@@H](NC(=O)C(C)(C)NC(=O)[C@H](Cc1ccncc1)NC(=O)[C@H](CC(=O)O)NC(=O)[C@H](CO)NC(=O)[C@@H](NC(=O)[C@](C)(Cc1ccccc1F)NC(=O)[C@@H](NC(=O)CNC(=O)[C@H](CCC(=O)O)NC(=O)C(C)(C)NC(=O)[C@@H](N)Cc1ccc(O)cc1)[C@@H](C)O)[C@@H](C)O)[C@@H](C)CC)[C@@H](C)CC)C(=O)N[C@@H](CCC(=O)O)C(=O)NCC(=O)NCC(=O)N1CCC[C@H]1C(=O)N[C@@H](CO)C(=O)N[C@@H](CO)C(=O)NCC(=O)N[C@@H](C)C(=O)N1CCC[C@H]1C(=O)N1CCC[C@H]1C(=O)N1CCC[C@H]1C(=O)N[C@@H](CO)C(N)=O [Example 360] |  |  |  |  |  |  |  |  |  | Ki [1]: 0.673 nM; Ki [2]: 0.046 nM; EC50 (hGIPR; hGIPR EC50, nM (SEM, n), cAMP, 0.1% bovine casein (no human serum albumin)): 0.0121 nM; EC50 (hGCGR; hGCGR EC50, nM (SEM, n), cAMP, 0.1% bovine casein (no human serum albumin), geometric mean): > 9950 nM; EC50 (hGCGR; hGCGR EC50, nM (SEM, n), cAMP, 0.1% bovine casein and 1.0% human serum albumin, geometric mean (SEM, n)): > 9950 nM; Emax (hGLP-1R; HEK293, read-out: hGLP-1R Emax, % ± SEM, cAMP, 37° C., 0.1% bovine casein and 1.0% human serum albumin): 97.1%; Emax (hGLP-1R; HEK293, read-out: hGLP-1R Emax, % ± SEM, cAMP, 37° C., 0.1% bovine casein, arithmetic mean): 89.8%; EC50 (hGLP-1R; hGLP-1R EC50, nM (SEM, n), 37° C., 0.1% bovine casein (no human serum albumin), geometric mean): 0.301 nM
